In brackets after ≈: the same amount, converted by molar mass.
Key:
[1] = Plasma levels in osteoarthritic rats after acute and repeated dosing; assay type: in vivo, rat; conditions: for Plasma Levels, Chronic: 1 hour after last dose on 12 days of BID dosing; for EC50: Rattus norvegicus, osteoarthritic rats, acute dosing
Protocol: (§1) In the osteoarthritic pain model, animals were dosed twice-daily for 12 days using a dose that was non-efficacious following a single administration (e.g. 3 μmol/kg p.o. for Compound A). The animals were tested 1 hour after acute dosing (p.o.) and on day 12, 1 hour after oral dosing with either vehicle or the test compound.

[2] = test system: MIA-induced osteoarthritic rats; experiment: Osteoarthritic pain model in rats (MIA), hind limb grip force; assay type: in vivo, rat; conditions: grip force; for ED50: Rattus norvegicus, po, MIA-induced osteoarthritic rats, p.o., acute dosing, read-out: Acute ED50 (μmol/kg; 95% Cl); for % Efficacy at Reduced Dose, Chronic (BID, 12 days) / % Efficacy at Reduced Dose, Acute: relative to naïve group; for % Efficacy at Reduced Dose, Acute: 1 hour after acute dosing; for analgesic effects following repeated dosing vs acute dosing: BID 12 days, reduced dose
Protocol: Unilateral knee joint osteoarthritis was induced in the rats by a single intraarticular (i.a.) injection of sodium monoiodoacetate (MIA) (Sigma, St. Louis, Mo.) (3 mg in 0.05 mL sterile isotonic saline) into the joint cavity using a 26 G needle under light (2-4%) halothane (Halocarbon Laboratories, River Edge, N.J.) anesthesia [Bove S E, Calcaterra S L, Brooker R M, Huber C M, Guzman R E, Juneau P L, et al. Weight bearing as a measure of disease progression and efficacy of anti-inflammatory compounds in a model of monosodium iodoacetate-induced osteoarthritis. Osteoarthritis Cartilage 2003; 11:821-30]. Following injection, the animals were allowed to recover from the effects of anesthesia (usually 5-10 min) before returning them to their home cages.
MIA-induced nociception can be assessed by measuring differences in weight bearing (WBD) or decrease in grip force (GF) several days to weeks following MIA injection [Bove S E, Calcaterra S L, Brooker R M, Huber C M, Guzman R E, Juneau P L, et al. Weight bearing as a measure of disease progression and efficacy of anti-inflammatory compounds in a model of monosodium iodoacetate-induced osteoarthritis. Osteoarthritis Cartilage 2003; 11:821-30; Fernihough J, Gentry C, Malcangio M, Fox A, Rediske J, Pellas T, et al. Pain related behaviour in two models of osteoarthritis in the rat knee. Pain 2004; 112:83-93].
In addition to weight-bearing differences, grip strength was also assessed in osteoarthritic rats approximately 21 days after MIA injection. Measurements of peak hind limb grip force were conducted by recording the maximum compressive force exerted on the hind limb strain gauge setup, in a commercially available grip force measurement system (Columbus Instruments, Columbus, Ohio). During testing, each rat was gently restrained by grasping around its rib cage and then allowed to grasp the wire mesh frame (10-12 cm^2) attached to the strain gauge. The experimenter then moved the animal in a rostral-to-caudal direction until the grip was broken. Each rat was sequentially tested twice at an approximately 2 min interval to obtain a raw mean grip force […]. These raw mean grip force data were in turn converted to a maximum hind limb compressive force (CFmax) (gram force)/kg body weight for each animal. A group of age-matched naïve animals was added to each experiment and the data obtained from the different dose groups for the compound being tested were compared to the naïve group.
Compound A was dissolved in 100% polyethylene glycol (PEG 400) for oral administration in a 2 mL/kg injection volume. Compounds B, C, and D were dissolved in 10% ethanol, 20% Tween 80 and 70% polyethylene glycol-400 for oral administration in a 2 mL/kg injection volume. All compounds were dosed orally (p.o.) 60 minutes before behavioral testing.
as §1
The analgesic responses were shown as % effect relative to the healthy, untreated rats (naïve group).

Compound	Plasma Levels, Chronic ([1]; 12 μmol/kg) [at 12 μmol/kg ng/mL]	EC50 [1] [µg/mL]	ED50 [2] [µmol/kg]	% Efficacy at Reduced Dose, Chronic (BID, 12 days) ([2]; 12 μmol/kg p.o. BID 12 days) [%]	% Efficacy at Reduced Dose, Acute ([2]; 12 μmol/kg p.o.) [%]	analgesic effects following repeated dosing vs acute dosing [2]	Plasma Levels, Chronic ([1]; 5 μmol/kg) [at 5 μmol/kg ng/mL]	Plasma Levels, Chronic ([1]; 15 μmol/kg) [at 15 μmol/kg ng/mL]	% Efficacy at Reduced Dose, Chronic (BID, 12 days) ([2]; 5 μmol/kg p.o. BID 12 days) [%]	% Efficacy at Reduced Dose, Acute ([2]; 5 μmol/kg p.o.) [%]	% Efficacy at Reduced Dose, Chronic (BID, 12 days) ([2]; 15 μmol/kg p.o. BID 12 days) [%]	% Efficacy at Reduced Dose, Acute ([2]; 15 μmol/kg p.o.) [%]	Plasma Levels, Chronic ([1]; 10 μmol/kg) [at 10 μmol/kg ng/mL]	% Efficacy at Reduced Dose, Chronic (BID, 12 days) ([2]; 10 μmol/kg p.o. BID 12 days) [%]	% Efficacy at Reduced Dose, Acute ([2]; 10 μmol/kg p.o.) [%]
C[C@@H]1CN(c2ncccc2Cl)CC=C1C(=O)Nc1ccc(C(F)(F)F)cc1 [B, (3S)-3′-chloro-3-methyl-N-[4-(trifluoromethyl)phenyl]-3,6-dihydro-2H-1,2′-bipyridine-4-carboxamide]	760	0.915 (≈ 2.31 µM)	17	80	30	significantly increased									
Cc1nc(Nc2cccc3c2C[C@H](O)CC3)oc1-c1ccc(C(F)(F)F)cc1 [C, (2R)-8-({4-methyl-5-[4-(trifluoromethyl)phenyl]-1,3-oxazol-2-yl}amino)-1,2,3,4-tetrahydronaphthalen-2-ol]		0.5 (≈ 1.29 µM)	14			significantly increased	86	150	38	15	83	22			
CCC1(CC)C[C@@H](NC(=O)Nc2cccc3cnc(C)cc23)c2cc(F)ccc2O1 [D, N-[(4R)-2,2-diethyl-6-fluoro-3,4-dihydro-2H-chromen-4-yl]-N′-(3-methylisoquinolin-5-yl)urea]		1 (≈ 2.45 µM)	26			significantly increased							217	62	28
